# Legend:
# [1] = test system: lesional skin of patients with moderate atopic dermatitis; assay: Gene expression by qRT-PCR (TLDA) in lesional skin biopsies, Phase II atopic dermatitis study; assay type: in vivo, human; conditions: qRT-PCR fold change, lesional skin biopsy, Day 22, niclosamide 2% once daily
# Source text: (§1) 31 patients with moderate atopic dermatitis (Investigator Global Assessment [IGA] of 3) were included in this double-blind, randomized, intraindividual vehicle-controlled, Phase 2 study to evaluate the efficacy and safety of topically applied niclosamide. Patients had at least 2 areas of at least 3×3-cm of atopic dermatitis with a Total Sign Score (TSS) of […] discontinued the study before Day 22.
# (§2) Patients received topical applications of the niclosamide 2% composition and vehicle once daily for 3 weeks, followed by a 1-week follow up period. Topical niclosamide 2% and vehicle was applied on two separate target lesions of atopic dermatitis (lesions of at least 3×3-cm that are at least 2 cm apart, excluding the face, scalp, genitals, hands, and feet). The application areas (5×5-cm) were randomized (1:1) to once daily application of niclosamide 2% or vehicle at 5 mg/cm^2/day without occlusion 6 days per week. Patients came to the study site for all study product application for a total of 3 weeks.
# (§3) Three skin biopsies were collected in all patients (one from lesional skin at baseline, pre-dosing at Day 1, and two from lesional skin at Day 22 (one where topical niclosamide 2% had been applied and one where the vehicle had been applied). The lesional skin biopsies were analysed for skin thickness and inflammation biomarkers.
# (§4) Skin barrier and inflammation biomarker levels were determined from lesional skin biopsies from application areas.
# (§5) The skin biopsy samples were analysed by immunohistochemistry (IHC), and by gene expression studies by RT-PCR using TaqMan Low Density Array (TLDA), and by microarray using Affymetrix U133A Plus 2. The immunohistochemistry (IHC) was used to analyse cell biomarkers. The methodologies as disclosed by Guttman-Yassky et al, “Major differences in inflammatory dendritic cells and their products distinguish atopic dermatitis from psoriasis”, The Journal of Allergy and Clinical Immunology, vol. 119, issue 5, pages 1210-1217, 2007, were followed except for that U133A Plus 2-set Gene Chip probe arrays was used instead of U95A-set Gene Chip probe arrays.
# Expression values (threshold cycle [Ct]) were normalized to Rplp0 by negatively transforming the Ct values to −dCt (IL17A was normalized to hARP, as analysed by qPCR). The undetected −dCt values were estimated for each gene as the 20% of the minimum across all samples. qRT-PCR expression data were modelled using a mixed effect model with Visit and Treatment Area as a fixed effect and a random intercept for each patient. This formulation intrinsically models the within patient correlation structure as in the case of a paired t-test. This approach introduces less bias than restricting the analysis for those patients who completed the study. Contrasts were used to estimate the fold changes with treatment within each treatment group and conduct hypothesis testing.
# [2] = test system: lesional skin of patients with moderate atopic dermatitis; assay: Gene expression by microarray (Affymetrix U133A Plus 2) in lesional skin biopsies, Phase II atopic dermatitis study; assay type: in vivo, human; conditions: microarray fold change
# Source text: as §1, §2, §3, §4, §5
# Experimental design: The hybridization strategy was in concordance with experimental design principles, by for example keeping all samples from the same patient in the same date, and always include samples from every treatment arm/group.
# Quality Control and Pre-processing: Quality control of microarray chips were carried out using standard QC metrics and R package microarray Quality Control. Expression measures were obtained using GCRMA algorithm (Wu & Irizarry, 2004). Several visual and modelling techniques were used to elucidate if batch effect existed. Principal Component analysis plots were used to detect if any evident batch effect existed. If such batch effects were found, they were adjusted using Combat, an empirical Bayes method for adjusting data for batch effects that is robust to outliers in small sample sizes (Johnson, Li, & Rabinovic, 2007). The implementation of Combat by package sva was used.
# Probe-sets with at least 5% samples with expression larger than 3 (in log 2-scale) were kept for further analysis. Expression values were modelled using mixed-effect models with fixed factors Visit and Treatment Area and a random effect for each patient. Fold changes for the comparisons of interest were estimated and hypothesis testing was conducted on such comparisons using contrasts under the general framework for linear models in limma package. The inter-replicate correlation was computed by Duplicate Correlation function and the linear model was estimated by ImFit. P-values from the moderated (paired) t-test were adjusted for multiple hypotheses using the Benjamini-Hochberg procedure, which controls for FDR.
# [3] = test system: lesional skin of patients with moderate atopic dermatitis; assay: Immunohistochemistry (IHC) of cell markers in lesional skin biopsies, Phase II atopic dermatitis study; assay type: in vivo, human; conditions: lesional skin biopsy, Day 22, 2% niclosamide
# Source text: as §1, §2, §3, §5
# [4] = test system: lesional skin of patients with moderate atopic dermatitis; assay: Skin thickness in lesional skin biopsies at Day 22; assay type: in vivo, human; conditions: lesional skin biopsy, Day 22, 2% niclosamide
# Protocol: as §2, with “weeks. Three skin biopsies were collected in all patients (one from lesional skin at baseline, pre-dosing at Day 1, and two from lesional skin at Day 22 (one where topical niclosamide 2% had been applied and one where the vehicle had been applied). The lesional skin biopsies were analysed for skin thickness and inflammation biomarkers.” for “weeks.”
# [5] = test system: dendritic cell; conditions: in-vitro, Wu et al.; cited from earlier work
# [6] = test system: lamina propria T cells (expressing CD3); conditions: WO 2017/040864; cited from earlier work
# [7] = test system: lesional AD skin; conditions: Brunner et al; cited from earlier work
# [8] = lesional skin biopsy, Day 22, niclosamide 2% once daily
# [9] = niclosamide relative to vehicle, Day 22, 2% niclosamide, p<0.05
molecule,measurement,setting,value
"O=C(Nc1ccc([N+](=O)[O-])cc1Cl)c1cc(Cl)ccc1O [Niclosamide, niclosamide]",CXCL1 Niclosamide vs. Predose,[1],−2.80
same,CXCL10 Niclosamide vs. Vehicle,[1],−1.10
same,FLG Niclosamide vs. Predose,[1],1.50
same,FLG Niclosamide vs. Vehicle,[1],1.30
same,IL2 Niclosamide vs. Predose,[1],−1.20
same,IL17A Niclosamide vs. Vehicle,[1],−1.40
same,KRT16 Niclosamide vs. Vehicle,[1],−1.60
same,MMP12 Niclosamide vs. Vehicle,[1],−1.90
same,S100A7 Niclosamide vs. Vehicle,[1],−2.20
same,FLG Niclosamide vs. Predose,[1]; listed as niclosamide,increased significantly
same,LOR Niclosamide vs. Predose,[1]; listed as niclosamide,increased significantly
same,ACOX2 Niclosamide vs Predose,[2]; [8],1.40
same,ACOX2 Vehicle vs. Niclosamide,[2]; [8],−1.40
same,CCL13 Niclosamide vs Predose,[2]; [8],−1.40
same,CCL18 Niclosamide vs Predose,[2]; [8],−1.70
same,CCL20 Vehicle vs. Niclosamide,[2]; [8],2.00
same,CCR1 Niclosamide vs Predose,[2]; [8],−1.90
same,CCR5 Niclosamide vs Predose,[2]; [8],−1.40
same,CD86 Niclosamide vs Predose,[2]; [8],−1.60
same,CXCL1 Vehicle vs. Niclosamide,[2]; [8],2.10
same,FA2H Niclosamide vs Predose,[2]; [8],1.50
same,IFNGR2 Vehicle vs. Niclosamide,[2]; [8],1.10
same,IL4R Niclosamide vs Predose,[2]; [8],−1.80
same,KRT79 Vehicle vs. Niclosamide,[2]; [8],−2.00
same,S100A12 Vehicle vs. Niclosamide,[2]; [8],2.30
same,SPTLC3 Vehicle vs. Niclosamide,[2]; [8],−1.30
same,CXCL1 downregulated compared to vehicle,[2]; [9],−2.10
same,S100A12 downregulated compared to vehicle,[2]; [9],−2.30
same,"Langerhans cells: langerin/CD207, compared to baseline",[3],Significant reductions
same,"dendritic cells: CD11c, compared to baseline",[3],Significant reductions
same,"dendritic cells: FceR1 in epidermis, compared to baseline",[3],Significant reductions
same,"total amount of T cells (CD3) in dermis and epidermis, compared to baseline",[3],No significant change
same,skin thickness compared to baseline and compared to vehicle,[4],No differences
same,lipopolysaccharide (LPS)-induced dendritic cell maturation and cytokine costimulatory molecule and MHC molecule expression,[5],inhibitory action
same,effect on lamina propria T cells (expressing CD3) isolated from IBD patients,[6],kills
dupilumab: inhibits interleukin-4 and interleukin-13 signalling by binding to interleukin-4 receptor a; FDA approved for atopic dermatitis,"expression of Th2-associated molecules, such as CCL17, CCL18, and CCL26",[7],reduction

# From patent US20210369650A1, “TREATMENT OF INFLAMMATORY CONDITIONS” (UNION therapeutics A/S, priority 2018, published 2021)
